Drawing on PubChem BioAssay (NCI), this text covers GI50 and TGI for ten compounds.

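1) Cells in 96-well plates. 2) Compound, 48 h, 5 concentrations. 3) Linear interpolation between surrounding doses. 4) Unreached endpoint = highest concentration. The concentration for 50% growth inhibition is given as GI50. TGI: concentration producing complete growth inhibition.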

Among the test systems are RXF 393 renal; A498 renal; HOP-92 NSCLC; HOP-62 NSCLC; HL-60(TB) leukemia; RPMI-8226 leukemia; DU-145 prostate; NCI-H226 lung; OVCAR-4 ovarian; M14 melanoma.
Assay in all cases: DTP human tumour cell line panel, 48 h

For the compound `COc1ccc(C(=O)c2cc(C)c(OC)c(C)c2)c(OC)c1O`, the GI50 (as a rule, the concentration giving 50% growth inhibition) was 0.163 µM in the test on RXF 393 renal; 1.84 µM with A498 renal; 0.247 µM in the test on HOP-92 NSCLC; 0.19 µM with HOP-62 NSCLC; 0.0276 µM in the test on HL-60(TB) leukemia; 0.0463 µM in the test on RPMI-8226 leukemia. Besides, the GI50 was 0.0369 µM in the test on DU-145 prostate, 2.71 µM with NCI-H226 lung and 0.415 µM with OVCAR-4 ovarian. For the same compound, the TGI (as a rule, the concentration giving total growth inhibition) was greater than 100 µM in the test on RXF 393 renal; 6.03 µM in the test with A498 renal; greater than 100 µM in the test on HOP-92 NSCLC; greater than 100 µM in the test with HOP-62 NSCLC; 0.0876 µM in the test on HL-60(TB) leukemia; greater than 62.6 µM in the test on RPMI-8226 leukemia. Moreover, the TGI in the test on DU-145 prostate was greater than 100 µM; in the test on NCI-H226 lung, 9.06 µM; in the test with OVCAR-4 ovarian it was greater than 100 µM.

In the case of `Cc1ccc(N=C/C=C(\Nc2ccc(C)cc2)c2ccc(Cl)cc2)cc1`, the GI50 in the test with RXF 393 renal was 17.6 µM; in the test with A498 renal it was 16.8 µM; in the test with HOP-92 NSCLC, 14 µM; in the test on HOP-62 NSCLC it was 14.9 µM; in the test on M14 melanoma, 4.96 µM; in the test with RPMI-8226 leukemia, 3.53 µM. Further, the GI50 with DU-145 prostate is 15.6 µM; in the test on OVCAR-4 ovarian, 47.4 µM. Besides, the TGI in the test on RXF 393 renal was 59.2 µM; with A498 renal it was 34.1 µM; in the test on HOP-92 NSCLC, 33.1 µM; with HOP-62 NSCLC, 35.9 µM; with M14 melanoma, 22.5 µM; in the test with RPMI-8226 leukemia, greater than 100 µM. Also, the TGI is 38.4 µM in the test with DU-145 prostate and greater than 100 µM in the test on OVCAR-4 ovarian.

For the compound `CC1=C(/C=C/Cl)CC(Cl)C(C)(Cl)C1` (centres undefined), the TGI with RXF 393 renal is 71.3 µM; in the test on A498 renal, greater than 100 µM; in the test on HOP-92 NSCLC it was greater than 100 µM; in the test with M14 melanoma it was greater than 100 µM; in the test with HL-60(TB) leukemia it was 60.5 µM; with DU-145 prostate, greater than 100 µM. The TGI with NCI-H226 lung and in the test on OVCAR-4 ovarian was greater than 100 µM throughout.

As for `CCOC(=O)C1CCN(S(=O)(=O)/N=C2/NC(=O)NC2=C(Cl)Cl)CC1`, the GI50 in the test with RXF 393 renal was 1.61 µM; with A498 renal it was 2.65 µM; in the test on HOP-92 NSCLC, 1.62 µM; in the test on HOP-62 NSCLC, 0.971 µM; with M14 melanoma it was 1.82 µM; with HL-60(TB) leukemia, 1.74 µM. In addition, the GI50 in the test with RPMI-8226 leukemia was 0.327 µM; in the test with DU-145 prostate, 2.37 µM; in the test with NCI-H226 lung it was 2.86 µM. The TGI was 3.06 µM in the test with RXF 393 renal; 12.1 µM in the test with A498 renal; 3.29 µM in the test with HOP-92 NSCLC; 16.5 µM in the test with HOP-62 NSCLC; 3.6 µM in the test on M14 melanoma; 4.34 µM with HL-60(TB) leukemia. The TGI in the test with RPMI-8226 leukemia stood at 10.1 µM; in the test with DU-145 prostate, 15.1 µM; in the test on NCI-H226 lung, 9.94 µM.

Regarding `O=C1c2cccnc2-c2nc(-c3ccc(Cl)cc3)cc3c2c1nc1ccccc13`, the GI50 in the test on RXF 393 renal was 30.8 µM; in the test on A498 renal, 33.5 µM; in the test on HOP-92 NSCLC it was 22.9 µM; in the test on M14 melanoma, 19.9 µM; with HL-60(TB) leukemia, 37.6 µM; in the test on RPMI-8226 leukemia, 56.5 µM. The GI50 with DU-145 prostate was 75.4 µM; with NCI-H226 lung, 49.5 µM; with OVCAR-4 ovarian, 43.6 µM. Moreover, the TGI with RXF 393 renal was greater than 100 µM; with A498 renal, greater than 100 µM; with HOP-92 NSCLC, 74.1 µM; in the test on M14 melanoma it was 58 µM; in the test with HL-60(TB) leukemia, greater than 100 µM; with RPMI-8226 leukemia it was greater than 100 µM. Further, the TGI with DU-145 prostate, in the test on NCI-H226 lung and in the test with OVCAR-4 ovarian was greater than 100 µM in each case.

Take `N#Cc1cc(-c2cc3ccccc3o2)oc1N`: the GI50 in the test with RXF 393 renal was 3.96 µM; in the test with A498 renal, 1.76 µM; in the test with HOP-62 NSCLC, 3.18 µM; in the test on M14 melanoma it was 6.11 µM; with HL-60(TB) leukemia it was 3.85 µM; in the test on RPMI-8226 leukemia, 1.46 µM. For the same compound, the values for the GI50 in the test on DU-145 prostate, in the test on NCI-H226 lung and in the test with OVCAR-4 ovarian were 4.4 µM, 3.12 µM and 3.23 µM, respectively. Also, the TGI in the test with RXF 393 renal was 13.5 µM; in the test on A498 renal, 4.68 µM; in the test on HOP-62 NSCLC it was 11.3 µM; with M14 melanoma it was 22 µM; in the test on HL-60(TB) leukemia, greater than 100 µM; in the test on RPMI-8226 leukemia, 5.04 µM. The TGI in the test on DU-145 prostate was 28.9 µM; in the test with NCI-H226 lung, 13.4 µM; with OVCAR-4 ovarian, 40.6 µM.

With `OCC1OC(n2cnc3c2NC=NC[C@H]3O)C(Cl)C1O` (some centres undefined), the TGI in the test with A498 renal, with HOP-92 NSCLC, in the test with HOP-62 NSCLC, with M14 melanoma, in the test on HL-60(TB) leukemia and with RPMI-8226 leukemia was greater than 100 µM in each case. The TGI with DU-145 prostate and with OVCAR-4 ovarian was greater than 100 µM each time.

On to `Cc1cc(NC(=S)SCc2ccc(F)cc2)c([N+](=O)[O-])cc1C`, for which the TGI is 82.9 µM in the test on RXF 393 renal; 68 µM in the test on HOP-92 NSCLC; 68.1 µM with HOP-62 NSCLC; greater than 100 µM in the test on M14 melanoma; 45.4 µM with HL-60(TB) leukemia; greater than 100 µM with DU-145 prostate. Besides, the results for the TGI with NCI-H226 lung and with OVCAR-4 ovarian were 38.7 µM and greater than 100 µM, respectively.

`COc1ccc(-c2cc(-c3cc(C)cc(Br)c3O)no2)cc1`: the TGI is 13 µM with A498 renal; 41.9 µM with HOP-62 NSCLC; greater than 100 µM in the test with M14 melanoma; greater than 100 µM with HL-60(TB) leukemia; greater than 100 µM in the test on RPMI-8226 leukemia; 36.2 µM with DU-145 prostate. Besides, the TGI in the test on NCI-H226 lung is 42.4 µM; in the test on OVCAR-4 ovarian it was 13.2 µM.

Regarding `COc1ccc(-c2nc3ccccn3c2/C=C/C(=O)c2cc(OC)c(OC)c(OC)c2)cc1OC`, the GI50 is 2.93 µM in the test on A498 renal; 4.42 µM in the test with HOP-62 NSCLC; 4.48 µM in the test with M14 melanoma; 2.53 µM in the test with HL-60(TB) leukemia; 0.398 µM in the test on RPMI-8226 leukemia; 2.63 µM with DU-145 prostate. Further, in the test on NCI-H226 lung, the GI50 was 6.1 µM. For the same compound, the TGI was determined as 17.8 µM in the test on A498 renal; 30 µM in the test on HOP-62 NSCLC; 45.1 µM with M14 melanoma; 6.12 µM in the test with HL-60(TB) leukemia; 2.51 µM in the test on RPMI-8226 leukemia; 8.14 µM in the test with DU-145 prostate. In the test on NCI-H226 lung, the TGI came out at 40.6 µM.
